Data from patent publication US5158939A, “Method of stimulating the immune systems of animals and compositions useful therefor” (priority 1990, dated 1992).

Test system: endotoxin
Experiment: Protection of mice against lethal endotoxin challenge
Type: in vivo
Details: compared with lipid X as reported in the literature
Procedure: The lethal dose of E. coli endotoxin was determined both for the intravenous and for the intraperitoneal challenge. […] (It is important to standardize each lot of endotoxin with each lot of mice.) To determine the approximate dose of lipid A derivative needed to protect against a lethal challenge of endotoxin, mice are pretreated with the lipid A derivative intraperitoneally 2 hours before challenge with 1500 μg of endotoxin, which is 3 times the LD100 dose. Pretreatment of mice with the lipid A derivative appeared to prolong the time to death.

CCCCCCC=CCCCCCC(=O)OC(CCCCCCCCCCC)CC(=O)NC1C(OCC2OC(OP(=O)(O)O)C(NC(=O)CC(=O)CCCCCCCCCCC)C(OC(=O)CC(O)CCCCCCC)C2O)OC(CO)C(OP(=O)(O)O)C1OC(=O)CC(O)CCCCCCC (stereo not shown) [DPLA]
protection of mice against a lethal dose of endotoxin: more effective than lipid X
